Results as given in patent US20240317722A1, “HETEROARYL-3-PIPERIDINEDIONE COMPOUND AND USE THEREOF” (Medshine Discovery Inc., priority 2021, published 2024).
Like-named read-outs stand apart in the source and are kept apart here.

What was measured:
GSPT1 [1] = molecular target: T1, GSPT1 (Homo sapiens, UniProt P15170+Q96SW2); assay: Target protein degradation in HEK293T-LgBiT_GSPT1-nHiBiT cells (HiBiT luminescence); type: cell-based; design: expressed in transfected cells; settings: 16 to 18 hours; for Dmax: read-out: Max. DR (maximum degradation rate)
T1 sequence (P15170 whole entry): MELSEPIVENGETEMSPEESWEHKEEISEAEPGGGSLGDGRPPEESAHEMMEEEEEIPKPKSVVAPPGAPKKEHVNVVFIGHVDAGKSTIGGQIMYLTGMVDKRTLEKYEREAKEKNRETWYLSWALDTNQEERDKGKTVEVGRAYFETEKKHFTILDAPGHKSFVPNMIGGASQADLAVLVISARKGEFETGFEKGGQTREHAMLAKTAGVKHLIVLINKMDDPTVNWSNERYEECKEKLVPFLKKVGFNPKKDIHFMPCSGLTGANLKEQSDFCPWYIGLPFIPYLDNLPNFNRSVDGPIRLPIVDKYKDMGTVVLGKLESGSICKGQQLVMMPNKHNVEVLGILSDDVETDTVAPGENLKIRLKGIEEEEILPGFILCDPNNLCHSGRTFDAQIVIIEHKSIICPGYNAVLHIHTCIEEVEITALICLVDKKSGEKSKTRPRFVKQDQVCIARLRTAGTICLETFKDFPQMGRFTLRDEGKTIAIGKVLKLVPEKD
T1 sequence (Q96SW2 whole entry): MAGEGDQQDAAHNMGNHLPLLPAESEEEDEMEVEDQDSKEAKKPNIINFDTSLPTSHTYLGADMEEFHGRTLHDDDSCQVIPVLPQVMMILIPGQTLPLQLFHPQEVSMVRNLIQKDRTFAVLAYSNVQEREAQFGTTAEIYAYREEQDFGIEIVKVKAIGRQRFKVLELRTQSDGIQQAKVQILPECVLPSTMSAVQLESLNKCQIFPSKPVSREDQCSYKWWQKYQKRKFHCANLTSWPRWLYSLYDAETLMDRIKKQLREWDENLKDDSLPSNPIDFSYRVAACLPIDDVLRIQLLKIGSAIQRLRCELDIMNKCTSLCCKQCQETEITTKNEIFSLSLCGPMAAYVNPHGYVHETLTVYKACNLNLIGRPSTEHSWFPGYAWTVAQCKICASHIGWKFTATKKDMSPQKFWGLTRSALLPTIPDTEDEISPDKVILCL
T1 sequence (Q16531 whole entry partner): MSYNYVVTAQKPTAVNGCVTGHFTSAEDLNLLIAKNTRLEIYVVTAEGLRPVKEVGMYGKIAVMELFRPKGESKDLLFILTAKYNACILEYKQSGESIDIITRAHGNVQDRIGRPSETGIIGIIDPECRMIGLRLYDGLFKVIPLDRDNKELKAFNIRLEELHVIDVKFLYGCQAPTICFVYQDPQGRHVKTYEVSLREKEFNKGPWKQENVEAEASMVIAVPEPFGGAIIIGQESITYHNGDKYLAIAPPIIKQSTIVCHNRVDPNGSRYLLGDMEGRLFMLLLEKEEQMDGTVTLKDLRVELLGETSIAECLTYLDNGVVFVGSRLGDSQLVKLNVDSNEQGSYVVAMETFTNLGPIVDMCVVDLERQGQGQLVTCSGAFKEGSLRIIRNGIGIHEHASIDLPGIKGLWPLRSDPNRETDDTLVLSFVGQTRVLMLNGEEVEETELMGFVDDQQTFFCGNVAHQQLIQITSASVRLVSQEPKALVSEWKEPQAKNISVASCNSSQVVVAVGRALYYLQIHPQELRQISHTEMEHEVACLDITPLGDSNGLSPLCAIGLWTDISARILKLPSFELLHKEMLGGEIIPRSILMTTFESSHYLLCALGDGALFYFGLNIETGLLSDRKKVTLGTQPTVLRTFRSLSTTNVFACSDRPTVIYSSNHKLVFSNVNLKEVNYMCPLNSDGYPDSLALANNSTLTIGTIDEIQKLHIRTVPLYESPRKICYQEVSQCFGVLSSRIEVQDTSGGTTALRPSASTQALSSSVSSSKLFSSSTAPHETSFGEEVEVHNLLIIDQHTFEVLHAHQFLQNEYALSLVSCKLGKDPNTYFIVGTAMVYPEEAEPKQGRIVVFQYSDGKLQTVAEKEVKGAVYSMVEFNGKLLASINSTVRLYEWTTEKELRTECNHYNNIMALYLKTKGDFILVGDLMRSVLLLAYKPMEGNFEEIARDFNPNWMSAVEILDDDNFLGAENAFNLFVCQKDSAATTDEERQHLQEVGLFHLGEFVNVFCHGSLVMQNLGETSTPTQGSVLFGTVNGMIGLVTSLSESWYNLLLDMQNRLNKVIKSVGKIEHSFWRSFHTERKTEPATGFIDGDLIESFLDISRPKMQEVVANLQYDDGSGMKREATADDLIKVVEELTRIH
Procedure: This assay was performed to detect the degradation effect of the test compound on the target protein GSPT1 in HEK293T-LgBiT cells.
• 1. Preparation of compounds • (1). Dissolving the powder of the test compound with DMSO to 10 mM as the storage concentration, and using a pipette to manually draw 9 μL of 10 mM or 3 mM test compound to columns 1 and 13 of a LDV plate; • (2). Using multidrop Combi to add 6 μL of DMSO to columns 2-12 and 14-24; • (3). Using Bravo to dilute the test compound 3 times (3 μL+6 μL) from columns 1 to 11 and 13 to 23; • (4). According to the layout of the plate, using Echo to transfer 25 nL of compound solution (columns 1-24 of the LDV plate) to the assay plate; • (5). Using Echo to transfer 25 nL of 1 mM positive control solution to the assay plate as a 100% degradation control (i.e. LC, HPE), and to transfer 25 nL of DMSO to the assay plate as a 0% control (i.e. HC, ZPE). • 2. Cell plating • (1). Discarding the cell culture medium, and washing the cells once with DPBS; then the cells were trypsinized, counted, and used to prepare a cell suspension of 4×10^5 cells/mL; • (2). Using MultiDrop Combi to add 25 μL/well of cell suspension at medium speed to the assay plate containing the test compound; • (3). Putting the assay plate containing cells back into the incubator and culturing it at 37° C. and 5% CO2 for 16 to 18 hours.
• (1). Using MultiDrop Combi to add 25 μL/well of detection reagent (NanoGlo lysis solution+substrate+LgBit protein) to the assay plate at high speed, and shaking for 10 minutes; • (2). Centrifuging at 2000 rpm×1 min to remove bubbles; • (3). Reading the plate using Envision, US Luminescence detection method.
The following formula was used to calculate the degradation rate (DR) of the test compound: DR (%)=(RLU of vehicle control−RLU of compound)/(RLU of vehicle control−RLU of positive control)*100%, wherein the vehicle control was a blank control. The degradation rates of compounds at different concentrations were calculated in Excel, and then XLFit software was used to obtain inhibition curves and to calculate relevant parameters, including the minimum degradation rate, maximum degradation rate and DC50.

[2] = Pharmacokinetics of compounds in mice; type: in vivo, C57BL/6N mice; settings: for bioavailability / clearance / Vd / half-life: male, C57BL/6N, mouse, plasma; for bioavailability: read-out: Bioavailability F; for Vd: read-out: Apparent volume of distribution; for half-life: read-out: Elimination half-life (converted)
Text: In this study, C57BL/6N male mice were selected as the test animals, and the LC/MS/MS method was used to quantitatively determine the drug concentration in the plasma of mice intravenously or orally administered the test compounds, so as to evaluate the pharmacokinetic profile of the test compounds in mice.
C57BL/6N mice (male, 20-30 g, 7-10 weeks old, Beijing Vital River).
A clear solution or suspension of the test compound was intravenously injected into C57BL/6N mice (fasted overnight) via tail or given to C57BL/6N mice (fasted overnight) by gavage. For intravenous injection administration, blood was collected from the cheek at 0 h (before administration) and 0.083, 0.25, 0.5, 1, 2, 4, 6, 8, and 24 h after administration. Each sample was collected about 0.05 mL. Heparin sodium was added to anti-coagulate. Plasma samples were collected and placed on wet ice, and centrifuged within 1 hour to separate the plasma (centrifugation conditions: 6000 g, 3 minutes, 2-8° C.). Blood samples were stored in a −80° C. refrigerator before analysis; For oral gavage administration, blood was collected from the cheek at 0 h (before administration) and 0.083, 0.25, 0.5, 1, 2, 4, 6, 8, 24 h after administration. Each sample was collected about 0.05 mL. Heparin sodium was added to anti-coagulate. Plasma samples were collected and placed on wet ice, and centrifuged within 1 hour to separate the plasma (centrifugation conditions: 6000 g, 3 minutes, 2-8° C.). Blood samples were stored in a −80° C. refrigerator before analysis. Through blood drug concentration data at different time points, Phoenix WinNonlin8.2.0 was used to calculate pharmacokinetic parameters, providing parameters such as AUC0-t, AUC0-∞, MRT0-∞, Cmax, Tmax, and T1/2, etc. and their mean and standard deviation.

MDA-MB-231 = assay: Anti-proliferative effect in MDA-MB-231 (CellTiter-Glo); type: cell-based, human; settings: MDA-MB-231, 3 days; for IC50: Homo sapiens, 72 h
Procedure: (§1) This assay studied the inhibitory effect of the compounds on cell proliferation by detecting the effect of the test compounds on the in vitro activity of tumor cells MV4-11 and MDA-MB-231.
(§2) The tumor cell lines were cultured in an incubator at 37° C., 5% CO2 or 0% CO2according to the above culture conditions. The cells were periodically passaged, and cells in logarithmic growth phase were taken for plating. • 2. Cell plating • (1). Cells were stained with trypan blue and viable cells were counted. • (2).
(§3) • (3). 90 μL of cell suspension was added to each well of the culture plate, and culture medium without cells was added to the blank control well. • (4). The plate was incubated overnight in an incubator at 37° C., 5% CO2 or 0% CO2, and 100% relative humidity. • 3. Preparation of a compound storage plate
(§4) Preparation of a 400× compound storage plate: The compounds were diluted with DMSO in a gradient from the highest concentration to the lowest concentration. The plates were prepared freshly at each time for use. • 4. Preparation of 10× compound working solution and treatment of cells with compounds • (1). Preparation of 10× compound working solution: compound or DMSO was added, and the well content was mixed to uniform by aspiration and expelling with pipette. 78 μL of cell culture medium was added to a 96-well plate with a V-shaped bottom. 2 μL of the compound from the 400× compound storage plate was added to the cell culture medium in the 96-well plate. 2 μL of DMSO was added to the vehicle control and the blank control. After adding compound or DMSO, the well content was mixed to uniform by aspiration and expelling with pipette. • (2). Dosing: 10 μL of 10× compound working solution was added to the cell culture plate. 10 μL of DMSO-cell culture mix solution was added to the vehicle control and blank control. • (3). The 96-well cell plate was placed back into the incubator and cultured for 3 days. • 5. CellTiter-Glo luminescence cell viability detection
The following steps were performed according to the instruction of Promega CellTiter-Glo luminescence cell viability detection kit (Promega-G7573). • (1). The CellTiter-Glo buffer was thawed and allowed to stand to reach room temperature; • (2). CellTiter-Glo substrate was allowed to stand to reach room temperature; • (3). 10 mL of CellTiter-Glo buffer was added to CellTiter-Glo substrate in a bottle to dissolve the substrate to formulate CellTiter-Glo working solution; • (4). The working solution was vortexed slowly for fully dissolution; • (5). The cell culture plates were taken out and allowed to stand for 30 minutes to equilibrate to room temperature; • (6). 50 μL (equal to half the volume of cell culture solution in each well) of Cell Titer-Glo working solution was added into each well. The cell plate was wrapped with aluminum foil to protect the cell plate from light; • (7). The culture plates were shaken on an orbital shaker for 2 minutes to induce cell lysis; • (8). The culture plates were left at room temperature for 10 minutes to stabilize the luminescence signal; • (9). The luminous signal was detected on the 2104 En Vision plate reader. • 6. Data analysis
The following formula was used to calculate the inhibition rate (IR) of the test compounds: IR (%)=(RLU of the vehicle control−RLU of the compound)/(RLU of the vehicle control−RLU of the blank control)*100%. The inhibition rates of the compounds at different concentrations were calculated in Excel, and then GraphPad Prism software was used to graph the inhibition curves and calculate the relevant parameters, including the minimum inhibition rate, maximum inhibition rate and IC50.

MV4-11 = assay: Anti-proliferative effect in MV4-11 (CellTiter-Glo); type: cell-based; settings: MV4-11, 3 days; for IC50: Homo sapiens, 72 h
Procedure: as §1, §2, §3, §4
The following steps were performed according to the instruction of Promega CellTiter-Glo luminescence cell viability detection kit (Promega-G7573). • (1). The CellTiter-Glo buffer was thawed and allowed to stand to reach room temperature; • (2). CellTiter-Glo substrate was allowed to stand to reach room temperature; • (3). 10 mL of CellTiter-Glo buffer was added to CellTiter-Glo substrate in a bottle to dissolve the substrate to formulate CellTiter-Glo working solution; • (4). The working solution was vortexed slowly for fully dissolution; • (5). […] The culture plates were left at room temperature for 10 minutes to stabilize the luminescence signal; • (9). The luminous signal was detected on the 2104 En Vision plate reader. • 6. […]

GSPT1 [3] = molecular target: T1, GSPT1; assay: Effect of degrading GSPT1 protein (Western blot) in BxPC-3 cells; type: cell-based; design: endogenous in cells; host or cells: BxPC-3; settings: 10 μM, 1 μM and 0.1 μM, 24 hours, Western blot (FIG. 1)
Procedure: BxPC-3 cells were treated with 10 μM, 1 μM and 0.1 μM of the test compound respectively for 24 hours. The cells were collected and lysed, denatured at 100° C. for 20 minutes, and then subjected to Western blot analysis. β-actin was used as the internal reference protein to detect the protein level of GSPT1. The main steps included: 1) Electrophoresis: Biorad precast gel was used to separate proteins using SDS-PAGE electrophoresis; 2) Transfer to membrane: Biorad rapid transfer to membrane system was used to transfer the proteins on the gel to PVDF membrane; 3) Blocking: the PVDF membrane with Western blotting was placed into an antibody incubation box, and blocking solution was added to completely cover the PVDF membrane for incubation at room temperature for 1 hour; 4) Incubation of the primary antibody: the above PVDF membrane was covered with GSPT1 antibody diluent, and incubated on a shaker at 4° C. overnight, 5) Incubation of the secondary antibody: the membrane was washed three times with Wash buffer, and secondary antibody diluent (Anti-rabbit IgG, HRP-linked) was added for incubation on a shaker at room temperature for 1 hour; 5) Exposure: the membrane was washed three times with Wash buffer, and the band on the membrane was detected using chemiluminescence method (Clarity Western ECL Substrate).

[4] = administration by gavage, 10 mg/kg

| DC50 (GSPT1 [1]) [nM] | Dmax (GSPT1 [1]) [%] | Area under the plasma concentration-time curve (0-inf) [2, 4] [µM·h] | Peak concentration [2, 4] [µM] | Time to peak [2, 4] [h] | Area under the plasma concentration-time curve (0-inf) ([2]; intravenous injection, 2 mg/kg) [µM·h] | bioavailability ([2]; PO 10 mg/kg vs IV 2 mg/kg) [%] | clearance ([2]; intravenous injection, 2 mg/kg) [mL/min/kg] | Vd ([2]; intravenous injection, 2 mg/kg) [L/kg] | half-life ([2]; intravenous injection, 2 mg/kg) [h] | IC50 (MDA-MB-231) [nM] | Area under the plasma concentration-time curve (0-inf) ([2]; intravenous injection, 1 mg/kg) [µM·h] | bioavailability ([2]; PO 10 mg/kg vs IV 1 mg/kg) [%] | clearance ([2]; intravenous injection, 1 mg/kg) [mL/min/kg] | Vd ([2]; intravenous injection, 1 mg/kg) [L/kg] | half-life ([2]; intravenous injection, 1 mg/kg) [h] | IC50 (MV4-11) [nM] | Compound | Max. IR (maximum inhibition rate) (MDA-MB-231) [%] | Max. IR (maximum inhibition rate) (MV4-11) [%] | effect of promoting the degradation of GSPT1 protein (GSPT1 [3]) |
| --- | --- | --- | --- | --- | --- | --- | --- | --- | --- | --- | --- | --- | --- | --- | --- | --- | --- | --- | --- | --- |
| 1.18 | 99.8 | 1.99 | 0.69 | 1.08 | 6.45 | 6.18 | 9.5 | 0.41 | 1.85 | – | – | – | – | – | – | – | Cc1c(Cl)cc(NC(=O)NCc2ccc3c(C4CCC(=O)NC4=O)noc3c2)cc1OCCN1CCOCC1 (stereo not shown) [WX012] | – | – | – |
| 1.94 | 99.9 | 2.71 | 1.76 | 0.50 | – | – | – | – | – | 4.7 | 1.90 | 14.2 | 15.8 | 2.3 | 3.62 | – | Cc1c(Cl)cc(NC(=O)NCc2ccc3c(C4CCC(=O)NC4=O)coc3c2)cc1OCCN1CCOCC1 (stereo not shown) [WX006] | 80.3 | – | – |
| – | – | – | – | – | – | – | – | – | – | 52.4 | – | – | – | – | – | 6 | O=C(COc1cccc(-c2csc(N3CCOCC3)n2)c1)NCCCCCCC(=O)Nc1ccc2c(C3CCC(=O)NC3=O)coc2c1 (stereo not shown) [WX003] | 65.29 | 100.15 | – |
| – | – | – | – | – | – | – | – | – | – | 57.2 | – | – | – | – | – | 30.5 | Cc1ccc(NC(=O)NCc2ccc3occ(C4CCC(=O)NC4=O)c3c2)cc1Cl (stereo not shown) [WX001] | 69.41 | 99.95 | significant effect of promoting the degradation of GSPT1 protein |
